Paper PMC9788418, “Design, Synthesis and Biological Evaluation of Syn and Anti-like Double Warhead Quinolinones Bearing Dihydroxy Naphthalene Moiety as Epidermal Growth Factor Receptor Inhibitors with Potential Apoptotic Antiproliferative Action” (Molecules, 2022)

Assays:
Assay type in all cases: cell-based, human
[1] = tested on: A-549 (epithelial cancer cell line); experiment: Antiproliferative assay; conditions: Homo sapiens, A549; read-out: Antiproliferative Activity IC50 ± SEM, A-549
Protocol: (§1) 4.2.1.2. Assay for antiproliferative effect
(§2) To explore the antiproliferative potential of compounds MTT assay was performed according to previously reported procedure using different cell lines to explore the antiproliferative potential of compounds propidium iodide fluorescence assay was performed using different cell lines. To calculate the total nuclear DNA, a fluorescent dye (propidium iodide, PI) is used which can attach to the DNA, thus offering a quick and precise technique. PI cannot pass through the cell membrane and its signal intensity can be considered as directly proportional to quantity of cellular DNA. Cells whose cell membranes are damaged or have changed permeability are counted as dead ones. The assay was performed by seeding the cells of different cell lines at a density of 3000-7500 cells/well (in 200µl […]
(§3) atmospheric conditions. The medium was removed; the compounds were added to the plates at 10 µM concentrations (in 0.1% DMSO) in triplicates, followed by incubation for 48 h. DMSO (0.1%) was used as control. After incubation, medium was removed followed by the addition of PI (25 µl, 50µg/mL in water/medium) to each well of the plates. At -80 °C, the plates were allowed to freeze for 24 h, followed by thawing at 25 °C. A fluorometer (Polar-Star BMG Tech) was used to record the readings at excitation and emission wavelengths of 530 and 620 nm for each well. The percentage cytotoxicity of compounds was calculated using the following formula:
(§4) Where ATC= Absorbance of treated cells and AC= Absorbance of control. […]
(§5) positive control in the assay.

[2] = tested on: MCF-7 (breast cancer cell line); experiment: Antiproliferative assay; conditions: Homo sapiens, MCF7; read-out: Antiproliferative Activity IC50 ± SEM, MCF-7
Protocol: as §1, §2, §3, §4, §5

[3] = tested on: HT-29 (colon cancer cell line); experiment: Antiproliferative assay; conditions: Homo sapiens, read-out: Antiproliferative Activity IC50 ± SEM, HT-29
Protocol: as §1, §2, §3, §4, §5

[4] = tested on: four tested cancer cell lines (A-549, MCF-7, Panc-1, HT-29); experiment: Antiproliferative assay, average over the four cell lines; conditions: for GI50: Homo sapiens, mean of the four cancer cell lines; for fold less potent than 4a (GI50): relative to 4a
Protocol: The newly synthesized compounds were tested for antiproliferative activity against four different types of cancer cells: A-549 (epithelial cancer cell line), MCF-7 (breast cancer cell line), Panc-1 (pancreas cancer cell line), and HT-29 (colon cancer cell line).
After 24 h, medium was removed from the plates and the compounds in (in 0.1% DMSO) were added (in 200 μL medium to yield a final concentration of 0.1% v/v) to the wells of plates. A single compound was designated with four wells followed by incubation of plates for 96h at 37°C. After incubation, medium was removed completely from the plates followed by addition of MTT (0.4 mg/mL in medium) to each well and subsequent incubation of plates for 3h. MTT (along with the medium) was removed and DMSO (150μL) was added to each well of the culture plates, followed by vortexing and subsequent measurement of absorbance (at 540 nm) using microplate reader. The data are shown as percentage inhibition of proliferation in comparison with controls containing 0.1% 4.2.1.2. Assay for antiproliferative effect
To explore the antiproliferative potential of compounds MTT assay was performed according to previously reported procedure using different cell lines to explore the antiproliferative potential of compounds propidium iodide fluorescence assay was performed using different cell lines. To calculate the total nuclear DNA, a fluorescent dye (propidium iodide, PI) is used which can attach to the DNA, thus offering a quick and precise technique. PI cannot pass through the cell membrane and its signal intensity can be considered as directly proportional to quantity of cellular DNA. Cells whose cell membranes are damaged or have changed permeability are counted as dead ones. The assay was performed by seeding the cells of different cell lines at a density of 3000-7500 cells/well (in 200µl medium) in culture plates followed by incubation for 24h at 37 °C in humidified 5% CO2/95% air atmospheric conditions. The medium was removed; the compounds were added to the plates at 10 µM concentrations (in 0.1% DMSO) in triplicates, followed by incubation for 48 h. DMSO (0.1%) was used as control. After incubation, medium was removed followed by the addition of PI (25 µl, 50µg/mL in water/medium) to each well of the plates. At -80 °C, the plates were allowed to freeze for 24 h, followed by thawing at 25 °C. A fluorometer (Polar-Star BMG Tech) was used to record the readings at excitation and emission wavelengths of 530 and 620 nm for each well. The percentage cytotoxicity of compounds was calculated using the following formula:
Where ATC= Absorbance of treated cells and AC= Absorbance of control. Erlotinib was used as positive control in the assay.

[5] = tested on: Panc-1 (pancreas cancer cell line); experiment: Antiproliferative assay; conditions: Homo sapiens, PANC-1; read-out: Antiproliferative Activity IC50 ± SEM, Panc-1
Protocol: (§6) 4.2. Biological evaluation
4.2.1. Cytotoxic activity using MTT Assay and evaluation of IC50 […]
cells were seeded at a density of 10^4 cells mL-1 in flat-bottomed culture plates containing 96 wells each. After 24 h, medium was removed from the plates and the compounds in (in 0.1% DMSO) were added (in 200 μL medium to yield a final concentration of 0.1% v/v) to the wells of plates. A single […]
incubation, medium was removed completely from the plates followed by addition of MTT (0.4 mg/mL in medium) to each well and subsequent incubation of plates for 3h. MTT (along with the medium) was removed and DMSO (150μL) was added to each well of the culture plates, followed by vortexing and subsequent measurement of absorbance (at 540 nm) using microplate reader. The data […]
as §1, §2, §3, §4, §5

[6] = Cell viability assay (MTT) on normal cell line; conditions: human, MCF-10A mammary gland epithelial cells, four days
Protocol: A cell viability test was performed using MCF-10A (human mammary gland epithelial) cell line to investigate the effect of 4a–e and 7a–e on normal cell lines. In this investigation, a concentration of 50 µM of the studied compound is employed for four days, after which cell viability is assessed.
as §6
4.2.1. Cytotoxic activity using MTT Assay and evaluation of IC50
MTT assay was carried out to study the effect of compounds on mammary epithelial cells (MCF-10A). The medium in which cells were propagated contained Dulbecco's modified Eagle's medium (DMEM)/ Ham's F-12 medium (1:1) supplemented with epidermal growth factor (20 ng/mL), hydrocortisone (500 ng/mL), insulin (10 μg/mL), 2 mM glutamine and 10% foetal calf serum. After every 2-3 days, the cells were passaged using trypsin ethylenediamine tetra acetic acid (EDTA). The cells were seeded at a density of 10^4 cells mL-1 in flat-bottomed culture plates containing 96 wells each. After 24 h, medium was removed from the plates and the compounds in (in 0.1% DMSO) were added (in 200 μL medium to yield a final concentration of 0.1% v/v) to the wells of plates. A single compound was designated with four wells followed by incubation of plates for 96h at 37°C. After incubation, medium was removed completely from the plates followed by addition of MTT (0.4 mg/mL in medium) to each well and subsequent incubation of plates for 3h. MTT (along with the medium) was removed and DMSO (150μL) was added to each well of the culture plates, followed by vortexing and subsequent measurement of absorbance (at 540 nm) using microplate reader. […]

Row | SMILES | IC50 [1] | IC50 [2] | IC50 [3] | GI50 [4] | fold less potent than 4a (GI50) [4] | IC50 [5] | viability at 96 h, 50 µM [6]
1 | Cn1c(=O)cc(-n2cc(COc3cccc4c(OCc5cn(-c6cc(=O)n(C)c7ccccc67)nn5)cccc34)nn2)c2ccccc21 [Compound 7e, 4,4′-(((naphthalene-1,5-diylbis(oxy))bis(methylene))bis(1H-1,2,3-triazole-4,1-diyl))-bis-(1-methylquinolin-2(1H)-one)] | 0.126 ± 0.013 µM | 0.13 ± 0.013 µM | 0.143 ± 0.014 µM | 0.134 µM | approximately 4 fold | 0.136 ± 0.013 µM | 85%
2 | Cc1ccc2[nH]c(=O)cc(-n3cc(COc4cccc5c(OCc6cn(-c7cc(=O)[nH]c8ccc(C)cc78)nn6)cccc45)nn3)c2c1 [Compound 7b, 4,4′-(((naphthalene-1,5-diylbis(oxy))bis(methylene))bis(1H-1,2,3-triazole-4,1-diyl))-bis-(6-methylquinolin-2(1H)-one)] | 0.063 ± 0.006 µM | 0.065 ± 0.006 µM | 0.067 ± 0.006 µM | 0.065 µM | – | 0.067 ± 0.006 µM | 93%
3 | Cn1c(=O)cc(-n2cc(COc3cccc4cccc(OCc5cn(-c6cc(=O)n(C)c7ccccc67)nn5)c34)nn2)c2ccccc21 [Compound 4e, 4,4′-(((naphthalene-1,8-diylbis(oxy))bis(methylene))bis(1H-1,2,3-triazole-4,1-diyl))-bis-(1-methylquinolin-2(1H)-one)] | 0.123 ± 0.012 µM | 0.127 ± 0.012 µM | 0.137 ± 0.013 µM | 0.13 µM | approximately 4 fold | 0.135 ± 0.013 µM | 90%
4 | C#Cc1cccc(Nc2ncnc3cc(OCCOC)c(OCCOC)cc23)c1 [Erlotinib, reference compound] | – | – | – | 0.033 µM | – | – | –
